How the values were obtained:
[1] = tested on: IL-1α secretion, human epidermal equivalents (EPI-200); experiment: IL-1α secretion upon chymotrypsin exposure (Example 5, diaper rash irritation); format: cell-based
Procedure: (§1) Modified chitosan (1%) alone was also included.
(§2) IL-1α secretion was analyzed using the Human IL-1α ELISA Duo Set (R&D Systems, cat# DY200, Lot 1353857). A Bio-Tek microplate reader and KC4 software were used for sample analysis.
(§3) The method is described in Example 1. Test articles included Chymotrypsin (0.005, 0.01 and 0.02%), with and without modified chitosan (1%). Chymotrypsin is the major fecal irritant enzyme that initiates diaper rash.

[2] = tested on: three-dimensional human epidermal equivalents (EPI-200); experiment: Cell death upon chymotrypsin exposure (Example 5); format: cell-based; settings: chymotrypsin 0.005-0.02%, one hour exposure
Description: as §1, §3

[3] = tested on: three-dimensional human epidermal equivalents (EPI-200); experiment: In Vitro Skin Irritation Test, MTT tissue viability upon SDS exposure (Example 1); settings: for mean of viability [%]: 60 minute exposure, MTT after 42 hr
Procedure: An In Vitro Skin Irritation Test was performed according to OCED guidelines. Irritant materials are identified by their ability to decrease cell viability below a defined threshold level of 50%. Moreover, if the cytotoxic effect is absent or weak, a quantifiable amount of inflammatory mediators (e.g. IL-1α) is released by the epidermis and may be used in a tiered approach to increase the sensitivity of the test.
Test materials (30 μl) were topically applied onto three-dimensional human epidermal equivalents (EPI-200 from MatTek, Ashland, Mass.), n=3 tissues per treatment group. Test materials included a positive control irritant (5% sodium dodecyl sulfate, SDS), and a negative control (Phosphate Buffered Saline, PBS), and aqueous SDS solutions of 0.2, 0.4 and 0.6%, with or without the addition of modified chitosan (1%). Modified chitosan (1%) alone was also included.
After a 60 minute exposure, the tissues were rinsed with PBS and were transferred to fresh medium. After 24 hours, media was collected for IL-1α analysis and tissues were transferred to fresh media for an additional 18 hr to allow the toxic effect of irritant chemicals to develop. After the 42 hr post-exposure equilibration, media was again collected and tissue viability was determined using an MTT assay.

[4] = tested on: IL-1α secretion, human epidermal equivalents (EPI-200); experiment: IL-1α secretion upon SDS exposure, ELISA (Example 1); format: cell-based; settings: for IL-1α secretion, Avg: media at 24 hours
Procedure: as §2

[5] = tested on: three-dimensional human epidermal equivalents (EPI-200); experiment: In Vitro Skin Irritation Test, MTT tissue viability, retinoids (Example 2); format: cell-based; settings: positive control irritant (5% SDS)
Procedure: Retinoids were dissolved in one of two vehicles: V1 (50% ethanol, 20% glycerin, 0.1% BHT, in PBS) or V2 (50% ethanol, 0.1% BHT, in PBS).

[6] = tested on: IL-1α secretion, human epidermal equivalents (EPI-200); experiment: IL-1α levels 24 hr post-exposure, retinoids, ELISA (Example 2); format: cell-based; settings: 5% SDS, Positive Control
Procedure: Retinoids were dissolved in one of two vehicles: […] […] A Bio-Tek microplate reader and KC4 software were used for sample analysis.

[7] = tested on: Epidermal equivalents (EPI-200); experiment: Visual observation of tissues after four days of daily retinol treatment (Example 3); format: cell-based; settings: 1% retinol in vehicle, daily for four days
Procedure: Epidermal equivalents (EPI-200 from MatTek, Ashland, Mass.) were topically treated daily, for four days, with 30 μl of each test article, n=3 tissues per treatment group. Test articles were removed from the apical surface of the tissue daily by washing with PBS prior to reapplication of test article. Tissues were fed daily with 0.9 mL EPI-100-NMM. Tissues remained untreated, or treated with a vehicle (45% ethanol, 0.1% BHT, in PBS), without and with increasing concentrations of retinol (0.01-1%), with or without the addition of the modified chitosan (1%).

[8] = tested on: IL-1α secretion, epidermal equivalents (EPI-200); experiment: IL-1α levels at 96 hr, daily retinol treatment, ELISA (Example 4); format: cell-based, human
Procedure: Epidermal equivalents (EPI-200 from MatTek, Ashland, Mass.) were topically treated daily, for four days, with 30 μl of each test article, n=3 tissues per treatment group. n=3 tissues were left untreated. Test articles were removed from the apical surface of the tissue daily by washing with PBS prior to reapplication of test article. […] Media was collected at 96 hour post treatment and IL-1α concentration was analyzed using the Human IL-1α ELISA Duo Set (R&D Systems, cat# DY200, Lot 1353857). A Bio-Tek microplate reader and KC4 software were used for sample analysis.

[9] = Untreated + Chymotrypsin (0.005%)
[10] = Untreated + Chymotrypsin (0.01%)
[11] = Untreated + Chymotrypsin (0.02%)

Chymotrypsin
IL-1α secretion, AVG [1, 9]: 65.279 | IL-1α secretion, tissue 1 [1, 9]: 47.295 | IL-1α secretion, tissue 2 [1, 9]: 74.241 | IL-1α secretion, tissue 3 [1, 9]: 74.302 | IL-1α secretion, AVG [1, 10]: 66.405 | IL-1α secretion, tissue 1 [1, 10]: 58.421 | IL-1α secretion, tissue 2 [1, 10]: 53.293 | IL-1α secretion, tissue 3 [1, 10]: 87.502 | IL-1α secretion, AVG [1, 11]: 166.821 | IL-1α secretion, tissue 1 [1, 11]: 67.307 | IL-1α secretion, tissue 2 [1, 11]: 353.378 | IL-1α secretion, tissue 3 [1, 11]: 79.779 | IL-1α secretion ([1]; chymotrypsin exposure 0.005-0.02%): dose-dependent increase in IL-1α secretion | cell death [2]: did not induce cell death

CCCCCCCCCCCCOS(=O)(=O)[O-].[Na+] [SDS, sodium dodecyl sulfate]
mean of viability [%] ([3]; 0.2% SDS): 110.0% | mean of viability [%] ([3]; 0.4% SDS): 106.3% | tissues dead ([3]; 0.6% SDS): ~90% | mean of viability [%] ([3]; 0.6% SDS): 13.8% | mean of viability [%] ([3]; 5% SDS (PC)): 11.1% | IL-1α secretion, Avg ([4]; 0.2% SDS): 151.98 | IL-1α secretion, Avg ([4]; 0.4% SDS): 334.95 | IL-1α secretion, Avg ([4]; 0.6% SDS): 524.61 | IL-1α secretion, Avg ([4]; PC (5% SDS)): 425.23 | IL-1α secretion ([4]; SDS exposure 0.2-0.6%): dose-dependent increase in IL-1α secretion | viability [5]: less than 10% | IL-1α levels 24 hr post-exposure, AVG [6]: >524.6 | IL-1α secretion, AVG ([1]; Positive Control (PC, 5% SDS)): 394.114 | IL-1α secretion, tissue 1 ([1]; Positive Control (PC, 5% SDS)): 459.595 | IL-1α secretion, tissue 2 ([1]; Positive Control (PC, 5% SDS)): 384.839 | IL-1α secretion, tissue 3 ([1]; Positive Control (PC, 5% SDS)): 337.908

CC1=C(/C=C/C(C)=C/C=C/C(C)=C/CO)C(C)(C)CCC1 [retinol]
visual observations at 96 hour post treatment [7]: partially disintegrated | IL-1α levels at 96 hr post-exposure, AVG ([8]; Vehicle + retinol (0.01%)): 104.90 | IL-1α levels at 96 hr post-exposure, Tissue 1 ([8]; Vehicle + retinol (0.01%)): 124.24 | IL-1α levels at 96 hr post-exposure, Tissue 2 ([8]; Vehicle + retinol (0.01%)): 108.54 | IL-1α levels at 96 hr post-exposure, Tissue 3 ([8]; Vehicle + retinol (0.01%)): 81.94 | IL-1α levels at 96 hr post-exposure, AVG ([8]; Vehicle + retinol (0.1%)): 240.68 | IL-1α levels at 96 hr post-exposure, Tissue 1 ([8]; Vehicle + retinol (0.1%)): 351.17 | IL-1α levels at 96 hr post-exposure, Tissue 2 ([8]; Vehicle + retinol (0.1%)): 108.86 | IL-1α levels at 96 hr post-exposure, Tissue 3 ([8]; Vehicle + retinol (0.1%)): 262.00 | IL-1α levels at 96 hr post-exposure, AVG ([8]; Vehicle + retinol (1%)): 1020.46 | IL-1α levels at 96 hr post-exposure, Tissue 1 ([8]; Vehicle + retinol (1%)): 885.52 | IL-1α levels at 96 hr post-exposure, Tissue 2 ([8]; Vehicle + retinol (1%)): 1097.75 | IL-1α levels at 96 hr post-exposure, Tissue 3 ([8]; Vehicle + retinol (1%)): 1078.11 | skin irritation by IL-1α secretion biomarker ([8]; retinol 0.01-1% in vehicle): induces skin irritation in a dose-responsive manner

— patent US11123362B2, “Compositions and methods to affect skin irritation” (ALUMEND, LLC, priority 2015, dated 2021)
